# How the values were obtained:
# [1] = molecular target: Ephrin type-A receptor 5 (Homo sapiens) (UniProt P54756); assay: Inhibition of human EPHA5 assessed as residual activity at 1 uM using polyEY as substrate in presence of 33P-ATP by ProQinase assay relative to control
# [2] = molecular target: Discoidin domain-containing receptor 2 (Homo sapiens) (UniProt Q16832); assay: Inhibition of human DDR2 assessed as residual activity at 1 uM using poly(Ala,Glu,Lys,Tyr)6:2:5:1 as substrate in presence of 33P-ATP by ProQinase assay relative to control
# [3] = test system: Epidermal growth factor receptor (Homo sapiens), P00533 [T790M]; assay: Inhibition of human EGFR T790M mutant assessed as residual activity at 1 uM using PolyEY as substrate in presence of 33P-ATP by ProQinase assay relative to control
# [4] = test system: Epidermal growth factor receptor (Homo sapiens), P00533 [L858R,T790M]; assay: Inhibition of EGFR L858R/T790M mutant (unknown origin) assessed as remaining activity at 1 uM by Kinome scan method relative to control
# [5] = molecular target: Mitogen-activated protein kinase 3 (Homo sapiens) (UniProt P27361); assay: Inhibition of human ERK1 assessed as residual activity at 1 uM using RBER-CHKtide as substrate in presence of 33P-ATP by ProQinase assay relative to control
# [6] = molecular target: Serine/threonine-protein kinase B-raf (Homo sapiens) (UniProt P15056); assay: Inhibition of BRAF (unknown origin) assessed as remaining activity at 1 uM by Kinome scan method relative to control
# [7] = molecular target: Myosin light chain kinase, smooth muscle (Homo sapiens) (UniProt Q15746); assay: Inhibition of human MYLK assessed as residual activity at 1 uM using RB-S6P as substrate in presence of 33P-ATP by ProQinase assay relative to control
# [8] = molecular target: Inhibitor of nuclear factor kappa-B kinase subunit epsilon (Homo sapiens) (UniProt Q14164); assay: Inhibition of human IKKepsilon assessed as residual activity at 1 uM using RBER-GSK3 as substrate in presence of 33P-ATP by ProQinase assay relative to control
# [9] = Anti-inflammatory activity against human derived high respond PBMC cells assessed as inhibition in stimulated IL-17A cytokine release incubated for 2 hrs in the presence of LPS/SEB/aCD28 by Luminex based sandwich immunoassay; format: functional, cell-based
# [10] = test system: Mast/stem cell growth factor receptor Kit (Homo sapiens), P10721 [V559D]; assay: Inhibition of KIT V559D mutant (unknown origin) assessed as remaining activity at 1 uM by Kinome scan method relative to control
# [11] = test system: Epidermal growth factor receptor (Homo sapiens), P00533 [UNDEFINED MUTATION]; assay: Inhibition of human EGFR d746-750 mutant assessed as residual activity at 1 uM using PolyEY as substrate in presence of 33P-ATP by ProQinase assay relative to control
# [12] = molecular target: Platelet-derived growth factor receptor beta (Homo sapiens) (UniProt P09619); assay: Inhibition of PDGFRbeta (unknown origin) assessed as remaining activity at 1 uM by Kinome scan method relative to control
# [13] = molecular target: T1, Tyrosine-protein kinase JAK3 (Homo sapiens) (UniProt P52333); assay: Inhibition of human JAK3 assessed as residual activity at 1 uM using poly(Ala,Glu,Lys,Tyr)6:2:5:1 as substrate in presence of 33P-ATP by ProQinase assay relative to control
# T1 sequence (whole entry): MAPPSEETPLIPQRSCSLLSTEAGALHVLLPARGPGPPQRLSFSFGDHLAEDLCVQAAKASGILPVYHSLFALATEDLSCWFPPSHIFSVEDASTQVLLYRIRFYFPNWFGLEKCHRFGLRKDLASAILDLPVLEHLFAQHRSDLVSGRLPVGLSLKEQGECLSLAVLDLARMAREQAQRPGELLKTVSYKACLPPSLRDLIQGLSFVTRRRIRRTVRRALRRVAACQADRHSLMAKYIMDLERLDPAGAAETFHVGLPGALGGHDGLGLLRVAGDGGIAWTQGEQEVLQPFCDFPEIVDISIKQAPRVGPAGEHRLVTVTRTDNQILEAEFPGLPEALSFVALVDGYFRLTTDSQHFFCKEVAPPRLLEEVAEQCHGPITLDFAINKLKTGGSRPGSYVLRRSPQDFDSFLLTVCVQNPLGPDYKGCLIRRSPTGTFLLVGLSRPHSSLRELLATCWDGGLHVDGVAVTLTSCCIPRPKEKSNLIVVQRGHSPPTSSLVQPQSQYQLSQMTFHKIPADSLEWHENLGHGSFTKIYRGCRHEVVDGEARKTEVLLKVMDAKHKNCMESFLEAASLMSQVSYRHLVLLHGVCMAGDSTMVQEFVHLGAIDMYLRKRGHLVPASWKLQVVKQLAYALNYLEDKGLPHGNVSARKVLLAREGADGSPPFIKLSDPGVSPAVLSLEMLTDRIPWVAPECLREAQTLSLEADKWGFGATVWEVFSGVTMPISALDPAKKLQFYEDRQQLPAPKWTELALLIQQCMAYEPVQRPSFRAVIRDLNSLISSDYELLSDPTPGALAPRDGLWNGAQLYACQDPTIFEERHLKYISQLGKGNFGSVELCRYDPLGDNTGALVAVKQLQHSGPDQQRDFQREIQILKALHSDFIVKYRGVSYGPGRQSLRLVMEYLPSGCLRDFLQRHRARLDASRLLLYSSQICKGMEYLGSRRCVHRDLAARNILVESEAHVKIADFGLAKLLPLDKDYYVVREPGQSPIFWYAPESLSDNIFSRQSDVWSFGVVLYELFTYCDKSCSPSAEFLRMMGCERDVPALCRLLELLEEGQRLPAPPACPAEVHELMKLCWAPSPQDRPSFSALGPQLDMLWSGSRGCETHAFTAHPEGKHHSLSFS
# [14] = molecular target: Cytoplasmic tyrosine-protein kinase BMX (Homo sapiens) (UniProt P51813); assay: Inhibition of BMX (unknown origin) assessed as remaining activity at 1 uM by Kinome scan method relative to control
# [15] = molecular target: Interleukin-1 receptor-associated kinase 4 (Homo sapiens) (UniProt Q9NWZ3); assay: Inhibition of human IRAK4 assessed as residual activity at 1 uM using RB-CTF as substrate in presence of 33P-ATP by ProQinase assay relative to control
# [16] = molecular target: Serine/threonine-protein kinase 16 (Homo sapiens) (UniProt O75716); assay: Inhibition of STK16 (unknown origin) assessed as remaining activity at 1 uM by Kinome scan method relative to control
# Chain of Serine/threonine-protein kinase 16 (Homo sapiens) (O75716 whole entry): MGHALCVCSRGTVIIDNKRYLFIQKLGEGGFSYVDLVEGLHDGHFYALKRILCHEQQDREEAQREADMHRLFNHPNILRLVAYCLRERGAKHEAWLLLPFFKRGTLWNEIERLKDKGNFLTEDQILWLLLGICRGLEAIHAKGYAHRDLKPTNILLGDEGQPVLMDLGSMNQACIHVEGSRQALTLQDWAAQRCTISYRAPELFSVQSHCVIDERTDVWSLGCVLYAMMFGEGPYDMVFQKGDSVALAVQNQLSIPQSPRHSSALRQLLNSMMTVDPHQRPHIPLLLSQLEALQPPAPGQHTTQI
# Chain of Interleukin-1 receptor-associated kinase 4 (Homo sapiens) (Q9NWZ3 whole entry): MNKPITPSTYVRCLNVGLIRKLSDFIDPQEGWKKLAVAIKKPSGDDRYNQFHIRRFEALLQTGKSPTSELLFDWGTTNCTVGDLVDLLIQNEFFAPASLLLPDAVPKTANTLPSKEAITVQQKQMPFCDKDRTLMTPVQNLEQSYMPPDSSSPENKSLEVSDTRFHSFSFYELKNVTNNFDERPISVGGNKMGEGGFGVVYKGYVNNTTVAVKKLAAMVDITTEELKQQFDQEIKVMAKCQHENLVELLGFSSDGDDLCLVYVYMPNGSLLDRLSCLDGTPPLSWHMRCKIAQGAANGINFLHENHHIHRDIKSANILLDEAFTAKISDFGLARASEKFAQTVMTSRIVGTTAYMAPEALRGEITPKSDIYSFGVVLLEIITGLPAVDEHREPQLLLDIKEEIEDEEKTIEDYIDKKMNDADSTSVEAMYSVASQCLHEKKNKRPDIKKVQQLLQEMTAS
# Chain of Cytoplasmic tyrosine-protein kinase BMX (Homo sapiens) (P51813 whole entry): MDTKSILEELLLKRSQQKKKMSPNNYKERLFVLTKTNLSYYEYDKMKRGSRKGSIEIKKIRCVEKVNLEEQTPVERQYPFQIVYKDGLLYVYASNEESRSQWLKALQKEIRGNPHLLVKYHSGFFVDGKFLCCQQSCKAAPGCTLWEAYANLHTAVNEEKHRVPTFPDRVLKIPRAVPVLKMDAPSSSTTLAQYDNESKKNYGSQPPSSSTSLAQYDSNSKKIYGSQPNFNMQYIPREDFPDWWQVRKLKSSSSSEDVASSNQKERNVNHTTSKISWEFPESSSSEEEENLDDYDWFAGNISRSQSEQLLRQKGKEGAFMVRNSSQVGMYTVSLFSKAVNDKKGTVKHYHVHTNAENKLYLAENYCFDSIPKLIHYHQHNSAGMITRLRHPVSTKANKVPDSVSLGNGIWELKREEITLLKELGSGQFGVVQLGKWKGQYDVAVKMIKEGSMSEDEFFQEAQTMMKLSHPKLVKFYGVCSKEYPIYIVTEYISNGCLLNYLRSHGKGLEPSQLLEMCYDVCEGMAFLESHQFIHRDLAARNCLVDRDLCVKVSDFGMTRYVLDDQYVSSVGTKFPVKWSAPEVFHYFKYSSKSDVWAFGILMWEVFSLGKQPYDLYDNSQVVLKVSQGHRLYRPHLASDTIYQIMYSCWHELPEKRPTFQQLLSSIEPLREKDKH
# Chain of Inhibitor of nuclear factor kappa-B kinase subunit epsilon (Homo sapiens) (Q14164 whole entry): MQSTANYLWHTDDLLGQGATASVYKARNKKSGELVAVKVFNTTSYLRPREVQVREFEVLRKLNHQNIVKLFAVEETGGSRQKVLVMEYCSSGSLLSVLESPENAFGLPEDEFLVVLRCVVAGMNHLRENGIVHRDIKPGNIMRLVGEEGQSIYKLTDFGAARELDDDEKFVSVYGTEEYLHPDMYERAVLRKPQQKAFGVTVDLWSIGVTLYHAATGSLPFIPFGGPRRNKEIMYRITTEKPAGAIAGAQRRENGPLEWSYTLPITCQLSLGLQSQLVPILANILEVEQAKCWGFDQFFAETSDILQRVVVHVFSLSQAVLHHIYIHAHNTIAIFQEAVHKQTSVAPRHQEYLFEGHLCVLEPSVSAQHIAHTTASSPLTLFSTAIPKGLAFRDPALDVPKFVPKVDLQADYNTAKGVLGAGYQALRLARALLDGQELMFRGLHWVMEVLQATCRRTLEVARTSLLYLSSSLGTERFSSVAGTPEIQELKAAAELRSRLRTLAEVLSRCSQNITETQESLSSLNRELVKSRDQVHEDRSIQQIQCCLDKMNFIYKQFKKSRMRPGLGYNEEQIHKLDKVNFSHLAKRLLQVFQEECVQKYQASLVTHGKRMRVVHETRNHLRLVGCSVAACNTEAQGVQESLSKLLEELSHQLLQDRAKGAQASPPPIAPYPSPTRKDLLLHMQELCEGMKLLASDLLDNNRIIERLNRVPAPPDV
# Chain of Ephrin type-A receptor 5 (Homo sapiens) (P54756 whole entry, the tested form may be a part): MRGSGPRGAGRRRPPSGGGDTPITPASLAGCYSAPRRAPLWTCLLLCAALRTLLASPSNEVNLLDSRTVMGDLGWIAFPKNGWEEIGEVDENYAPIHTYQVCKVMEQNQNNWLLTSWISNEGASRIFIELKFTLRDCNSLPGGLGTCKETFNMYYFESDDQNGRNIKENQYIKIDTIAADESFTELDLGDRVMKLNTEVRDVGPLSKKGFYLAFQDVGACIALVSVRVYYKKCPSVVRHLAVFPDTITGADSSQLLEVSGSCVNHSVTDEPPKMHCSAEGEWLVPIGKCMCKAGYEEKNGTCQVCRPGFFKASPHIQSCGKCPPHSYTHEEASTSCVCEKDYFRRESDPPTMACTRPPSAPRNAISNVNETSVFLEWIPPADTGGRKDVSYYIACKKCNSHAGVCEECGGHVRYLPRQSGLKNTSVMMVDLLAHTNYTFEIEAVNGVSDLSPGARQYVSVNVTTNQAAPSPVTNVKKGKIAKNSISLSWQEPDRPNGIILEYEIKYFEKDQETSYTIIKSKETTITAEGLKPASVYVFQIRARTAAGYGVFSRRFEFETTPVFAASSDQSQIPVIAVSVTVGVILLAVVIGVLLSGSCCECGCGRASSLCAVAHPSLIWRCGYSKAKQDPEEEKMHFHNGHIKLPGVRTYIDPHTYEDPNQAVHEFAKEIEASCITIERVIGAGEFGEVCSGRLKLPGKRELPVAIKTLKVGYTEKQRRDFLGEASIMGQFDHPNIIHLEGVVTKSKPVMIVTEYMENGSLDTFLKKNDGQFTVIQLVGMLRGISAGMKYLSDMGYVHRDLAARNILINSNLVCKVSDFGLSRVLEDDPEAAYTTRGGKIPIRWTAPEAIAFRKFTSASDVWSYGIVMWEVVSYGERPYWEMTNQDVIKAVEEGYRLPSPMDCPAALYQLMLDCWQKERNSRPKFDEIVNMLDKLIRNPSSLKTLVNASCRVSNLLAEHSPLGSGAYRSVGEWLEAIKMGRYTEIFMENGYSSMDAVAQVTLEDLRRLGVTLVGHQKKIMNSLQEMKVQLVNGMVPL
# Chain of Serine/threonine-protein kinase B-raf (Homo sapiens) (P15056 whole entry): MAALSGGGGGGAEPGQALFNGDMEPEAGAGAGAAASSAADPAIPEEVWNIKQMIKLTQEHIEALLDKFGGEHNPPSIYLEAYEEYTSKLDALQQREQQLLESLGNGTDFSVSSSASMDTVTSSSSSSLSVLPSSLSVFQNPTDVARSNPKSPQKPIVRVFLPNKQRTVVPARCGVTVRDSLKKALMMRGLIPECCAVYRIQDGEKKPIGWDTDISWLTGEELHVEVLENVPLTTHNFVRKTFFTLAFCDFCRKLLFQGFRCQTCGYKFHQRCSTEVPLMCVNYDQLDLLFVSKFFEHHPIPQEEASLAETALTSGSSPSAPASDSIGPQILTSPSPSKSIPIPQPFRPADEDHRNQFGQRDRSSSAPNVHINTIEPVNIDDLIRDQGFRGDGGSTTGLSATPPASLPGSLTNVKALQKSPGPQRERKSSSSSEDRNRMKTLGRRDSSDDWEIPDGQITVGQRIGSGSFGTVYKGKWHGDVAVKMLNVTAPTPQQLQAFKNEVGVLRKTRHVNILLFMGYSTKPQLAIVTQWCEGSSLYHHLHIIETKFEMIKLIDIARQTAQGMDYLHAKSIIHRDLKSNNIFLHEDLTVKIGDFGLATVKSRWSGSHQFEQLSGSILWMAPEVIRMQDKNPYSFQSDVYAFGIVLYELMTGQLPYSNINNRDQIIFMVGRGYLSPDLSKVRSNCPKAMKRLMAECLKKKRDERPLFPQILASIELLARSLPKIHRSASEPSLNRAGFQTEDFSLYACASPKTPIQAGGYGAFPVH
# Chain of Platelet-derived growth factor receptor beta (Homo sapiens) (P09619 whole entry): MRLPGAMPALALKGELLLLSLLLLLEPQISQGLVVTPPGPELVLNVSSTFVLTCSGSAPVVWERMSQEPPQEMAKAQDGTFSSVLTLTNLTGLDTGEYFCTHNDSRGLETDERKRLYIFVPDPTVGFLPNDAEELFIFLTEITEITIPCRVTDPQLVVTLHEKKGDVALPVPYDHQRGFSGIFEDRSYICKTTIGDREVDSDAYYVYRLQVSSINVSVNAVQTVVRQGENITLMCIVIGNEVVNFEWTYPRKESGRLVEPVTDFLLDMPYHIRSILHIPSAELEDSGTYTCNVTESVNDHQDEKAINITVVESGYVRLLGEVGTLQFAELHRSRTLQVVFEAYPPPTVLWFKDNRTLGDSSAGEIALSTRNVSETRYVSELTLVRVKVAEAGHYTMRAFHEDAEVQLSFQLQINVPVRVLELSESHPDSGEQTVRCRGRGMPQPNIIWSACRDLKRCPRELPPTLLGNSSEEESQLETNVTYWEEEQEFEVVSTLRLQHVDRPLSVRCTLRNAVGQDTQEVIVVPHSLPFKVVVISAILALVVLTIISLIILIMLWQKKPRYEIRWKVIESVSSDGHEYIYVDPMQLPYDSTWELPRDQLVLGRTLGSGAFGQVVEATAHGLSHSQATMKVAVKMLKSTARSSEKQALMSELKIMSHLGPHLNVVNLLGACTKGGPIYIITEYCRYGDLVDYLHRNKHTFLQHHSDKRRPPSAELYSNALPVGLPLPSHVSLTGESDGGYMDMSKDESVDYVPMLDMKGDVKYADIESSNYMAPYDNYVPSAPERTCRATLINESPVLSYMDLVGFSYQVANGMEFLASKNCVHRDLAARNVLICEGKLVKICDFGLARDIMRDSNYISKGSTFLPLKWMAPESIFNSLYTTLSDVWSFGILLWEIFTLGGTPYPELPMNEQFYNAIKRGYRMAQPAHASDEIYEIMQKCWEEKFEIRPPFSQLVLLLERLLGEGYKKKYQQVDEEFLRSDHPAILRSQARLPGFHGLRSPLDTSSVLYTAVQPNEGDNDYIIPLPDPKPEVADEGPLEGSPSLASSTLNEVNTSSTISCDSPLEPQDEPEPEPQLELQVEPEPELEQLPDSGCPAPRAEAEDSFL
compound,measurement,setting,value
O=C1c2ccc(Nc3ccc(F)cc3F)cc2CCc2ccc(OC[C@H](O)CO)cc21 [Skepinone-L],Activity,[1],132%
same,Activity,[2],102%
same,Activity,[3],119%
same,Activity,[4],100%
same,Activity,[5],99%
same,Activity,[6],100%
same,Activity,[7],78%
same,Activity,[8],103%
same,IC50,[9],420 nM
same,Activity,[10],100%
same,Activity,[11],100%
same,Activity,[12],87%
same,Activity,[13],103%
same,Activity,[14],100%
same,Activity,[15],104%
same,Activity,[16],87%

# — ChEMBL document CHEMBL5696441 (Nat Chem Biol, 2011)
